We go through two molecules from patent US20130064899A1, “SYNERGISTIC BIOCIDE COMPOSITION CONTAINING AT LEAST THREE BIOCIDE COMPONENTS” (THOR GMBH, priority 2010, published 2013).

The test system of assay [1] is Candida albicans (DSM 1386). In words: Minimum inhibitory concentration and synergy index in Sabouraud maltose broth, Candida albicans. Conditions: 72 hours at 25° C. Type of assay: cell-based. On the procedure: (§1) A test was made of the synergism of a combination of BIT, zinc pyrithione or sodium pyrithione, and silver. The test organisms used were the yeasts Candida albicans (DSM 1386) and Candida lipolytica (DSM 3286). For the test, mixtures with different compositions of BIT, zinc pyrithione or sodium pyrithione, and silver were prepared and were tested for their activity on Candida albicans and Candida lipolytica.
(§2) The individual actives or actives mixtures were mixed in serial concentration series with nutrient broth (Sabouraud maltose broth) and inoculated with the respective test organisms. The cell density in the overall batch was in each case 10^6 microbes per ml.
(§3) The incubation time was 72 hours at 25° C. on a shaker at 120 rpm. This was followed by inspection for growth of Candida albicans and Candida lipolytica.
(§4) This method was used to determine the minimum inhibitory concentrations (MICS) of the combination Ag+BIT and ZnPy or NaPy, with Ag and BIT always being present in a 1:20 ratio. The MIC is the concentration at which there is no longer any hazing of the nutrient solution.
(§5) The synergism which occurred was represented numerically by calculation of the synergy index (SI). The calculation was made according to the common method of F. C. Kull et al., Applied Microbiology, vol. 9 (1961), p. 538. The SI variant was given by the following formula:
Synergy index SI=Qa/QA+Qb/QB […]

Assay [2] has as its system Candida lipolytica (DSM 3286). The assay can be described thus: Minimum inhibitory concentration and synergy index in Sabouraud maltose broth, Candida lipolytica. Type of assay: cell-based. Conditions: 72 hours at 25° C.; for SI (synergy index = Qa/QA + Qb/QB): below 1 = synergism. The procedure:
as §1, §2, §3, §4, §5
Synergy index SI=Qa/QA+Qb/QB
When this formula is applied to the BIT+pyrithione+silver biocide system tested here, the variables in the formula have the following definition: • Qa=Concentration of Ag+BIT in the Ag+BIT and ZnPy mixture • QA=Concentration of Ag+BIT as sole biocide • Qb=Concentration of ZnPy in the Ag+BIT and ZnPy mixture • QB=Concentration of ZnPy as sole biocide
If the synergy index has a value of more than 1, this means that antagonism is present. If the synergy index adopts a value of 1, this means that the two biocides have an additive effect.

The mark [3] stands for this setting: concentration of ZnPy in the Ag + BIT and ZnPy mixture, *2 = QB, ZnPy as sole biocide.

Marks after values point to notes of the source that are not given here.

zinc pyrithione [ZnPy]: the “SI (synergy index = Qa/QA + Qb/QB)” value in assay [1] (below 1 = synergism) and in assay [2] (ZnPy series) was 1.00 in each case. Moreover, the “MIC Qb (ZnPy)” value in assay [1] (setting [3]) and in assay [2] (setting [3]) was 7.5*^2 ppm in each case.
In the case of `[Na+].[O-][n+]1ccccc1[S-]` [NaPy, sodium pyrithione], the “SI (synergy index = Qa/QA + Qb/QB)” value in assay [2] (NaPy series) worked out at 1.00. The “MIC Qb (NaPy)” value in assay [2] (concentration of NaPy in the Ag + BIT and NaPy mixture, *2 = QB, NaPy as sole biocide) is reported as 30*^2 ppm.
